This note sets out measurements from patent publication US8883782B2, “Spiro-tetracyclic ring compounds as beta-secretase modulators and methods of use” (Amgen Inc., priority 2010, dated 2014).

Test [1] has as its system Aβ40 in conditioned medium of cells stably expressing Amyloid Precursor Protein (APP). In words: In vitro BACE cell-based assay (Aβ40 in conditioned medium, sandwich ELISA). Conditions: read-out: HEK cell assay. The method in brief:
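The sandwich ELISA pairs pAb40 capture (3 h, 4 °C) with 6E10 detection (2 h, 4 °C) and a streptavidin-europium TRF read-out. Supernatants come from APP-expressing cells grown in 10% FBS DMEM.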
Background: An ELISA detects its analyte on a solid surface through an enzyme-linked reagent.

Test [2] deals with Beta Secretase enzyme (BACE) (Homo sapiens, UniProt P56817). Briefly: In vitro enzymatic BACE FRET (fluorescence resonance energy transfer) assay. The test is classed as biochemical. Conditions: average IC50, enzyme assay; read-out: BACE 1 FRET assay. Put shortly: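 Run in 0.05 M acetate pH 4.2 with 10% DMSO final and 100 uM genapol; started by adding 50 nM FRET peptide substrate (fluorophore and quencher flanking the cleavage site), incubated one hour, then stopped with Tris to neutral pH before reading fluorescence.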

[3] abbreviates: Homo sapiens, HEK293, average IC50, HEK cells.
Setting [4] is: Homo sapiens, HEK293, average IC50.

Where two headings read alike, the source gives them in different places.

Beta Secretase enzyme (BACE), sequence (P56817 46-501, species assumed): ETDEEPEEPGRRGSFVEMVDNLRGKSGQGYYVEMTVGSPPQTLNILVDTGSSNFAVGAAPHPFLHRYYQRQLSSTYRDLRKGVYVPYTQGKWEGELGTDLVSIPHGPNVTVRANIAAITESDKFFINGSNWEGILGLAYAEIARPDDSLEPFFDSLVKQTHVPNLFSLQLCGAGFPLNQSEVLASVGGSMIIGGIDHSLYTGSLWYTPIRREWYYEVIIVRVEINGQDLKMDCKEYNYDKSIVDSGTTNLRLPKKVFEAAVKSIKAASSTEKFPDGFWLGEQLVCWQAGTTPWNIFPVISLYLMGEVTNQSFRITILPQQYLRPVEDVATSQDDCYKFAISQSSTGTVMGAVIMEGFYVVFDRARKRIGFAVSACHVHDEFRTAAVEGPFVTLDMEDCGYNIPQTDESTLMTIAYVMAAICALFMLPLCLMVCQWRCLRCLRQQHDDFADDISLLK

Take `COc1ccc2c(c1)[C@@]1(COC(N)=N1)c1cc(C3(O)CCOCC3)cc(F)c1O2` [Example 938, 4-((4S)-2-amino-4′-fluoro-7′-methoxyspiro[1,3-oxazole-4,9′-xanthen]-2′-yl)tetrahydro-2H-pyran-4-ol]: the IC50 in test [1] (setting [3]) was found to be 3850 nM; in test [2], 4430 nM.
For `CCn1cc(-c2cccc(-c3ccc4c(c3)[C@@]3(COC(N)=N3)c3cc(C5=CCOCC5)ncc3O4)c2)cn1` [Example 244, (5S)-3-(3,6-dihydro-2H-pyran-4-yl)-7-(3-(1-ethyl-1H-pyrazol-4-yl)phenyl)spiro[chromeno[2,3-c]pyridine-5,4′-[1,3]oxazol]-2′-amine], the IC50 in test [1] (setting [4]) was found to be 326 nM; in test [2], 53.7 nM.
As for `NC1=N[C@@]2(CO1)c1cc(-c3cccnc3)ccc1Oc1cnc(N3CC[C@H](F)C3)cc12` [Example 412, (5S)-3-((3S)-3-fluoro-1-pyrrolidinyl)-7-(3-pyridinyl)spiro[chromeno[2,3-c]pyridine-5,4′-[1,3]oxazol]-2′-amine], the IC50 was found to be 20.8 nM in test [1] (setting [3]) and 7.6 nM in test [2].
In the case of `NC1=N[C@@]2(CS1)c1cc(-c3cccnc3F)ccc1Oc1cnc(C3=CCOCC3)cc12` [Example 614, (5S)-3-(3,6-dihydro-2H-pyran-4-yl)-7-(2-fluoro-3-pyridinyl)spiro[chromeno[2,3-c]pyridine-5,4′-[1,3]thiazol]-2′-amine], the IC50 came out at 5 nM in test [1] (average IC50, HEK cells) and 0.3 nM in test [2].
Turning to `NC1=N[C@@]2(CO1)c1cc(-c3cnccc3F)ccc1Oc1cnc(Cl)cc12` [Example 390, (5S)-3-chloro-7-(4-fluoro-3-pyridinyl)spiro[chromeno[2,3-c]pyridine-5,4′-[1,3]oxazol]-2′-amine], the figures for the IC50 in test [1] (setting [3]) and in test [2] were 640 nM and 102 nM, respectively.
With `CC1(COc2cc(F)c3c(c2)[C@]2(COC(N)=N2)c2cc(-c4cncc(Cl)c4)ccc2O3)COC1` [Example 206, (4S)-7′-(5-chloro-3-pyridinyl)-4′-fluoro-2′-((3-methyl-3-oxetanyl)methoxy)spiro[1,3-oxazole-4,9′-xanthen]-2-amine], the IC50 in test [1] (setting [4]) is 2.4 nM; in test [2], 0.7 nM.
On to `NC1=N[C@@]2(CO1)c1cc(-c3cccnc3F)ccc1Oc1c2cc(N2CC[C@H](F)C2)nc1F` [Example 917, (5S)-1-fluoro-7-(2-fluoro-3-pyridinyl)-3-((3S)-3-fluoro-1-pyrrolidinyl)spiro[chromeno[2,3-c]pyridine-5,4′-[1,3]oxazol]-2′-amine], for which the figures for the IC50 in test [1] (setting [3]) and in test [2] were 5 nM and 0.3 nM, respectively.
In the case of `CC(C)(C)/C=C/c1cc2c(cn1)Oc1cc(F)c(-c3cncnc3)cc1[C@@]21COC(N)=N1` [Example 304, (5S)-3-((1E)-3,3-dimethyl-1-buten-1-yl)-8-fluoro-7-(5-pyrimidinyl)spiro[chromeno[2,3-c]pyridine-5,4′-[1,3]oxazol]-2′-amine], the IC50 in test [1] (setting [4]) amounted to 23.9 nM; in test [2], 2.1 nM.
For `CC1(C#Cc2cc3c(c(F)n2)Oc2ccc(-c4cccnc4F)cc2[C@]32COC(N)=N2)COC1` [Example 737, (5R)-1-fluoro-7-(2-fluoro-3-pyridinyl)-3-((3-methyl-3-oxetanyl)ethynyl)spiro[chromeno[2,3-c]pyridine-5,4′-[1,3]oxazol]-2′-amine] the same measures were 4330 nM and 116 nM.
In the case of `Cc1ccncc1-c1ccc2c(c1)[C@@]1(COC(N)=N1)c1cc(C3=CCOCC3)ncc1O2` [Example 654, (5S)-3-(3,6-dihydro-2H-pyran-4-yl)-7-(4-methyl-3-pyridinyl)spiro[chromeno[2,3-c]pyridine-5,4′-[1,3]oxazol]-2′-amine], the values for the IC50 in test [1] (setting [3]) and in test [2] were 13 nM and 6.1 nM, respectively.
Turning to `CC1(C)C[C@@H](c2cnc3c(c2)[C@]2(COC(N)=N2)c2cc(-c4cncc(Cl)c4)ccc2O3)CCO1` [Example 476, (5S)-7-(5-chloro-3-pyridinyl)-3-((4S)-2,2-dimethyltetrahydro-2H-pyran-4-yl)spiro[chromeno[2,3-b]pyridine-5,4′-[1,3]oxazol]-2′-amine], the IC50 worked out at 4.9 nM in test [1] (average IC50, HEK cells) and 1.3 nM in test [2].
For `NC1=N[C@@]2(CS1)c1cc(-c3cccnc3F)ccc1Oc1cnc(N3CC[C@@H](F)C3)cc12` [Example 929, (5S)-7-(2-fluoro-3-pyridinyl)-3-((3R)-3-fluoro-1-pyrrolidinyl)spiro[chromeno[2,3-c]pyridine-5,4′-[1,3]thiazol]-2′-amine], the IC50 in test [1] (setting [3]) was 3 nM; in test [2] it was 0.3 nM.
For `NC1=N[C@]2(CS1)c1cc(-c3cncc(F)c3)ccc1Oc1cnc(C3=CCOCC3)cc12` [Example 618, (5R)-3-(3,6-dihydro-2H-pyran-4-yl)-7-(5-fluoro-3-pyridinyl)spiro[chromeno[2,3-c]pyridine-5,4′-[1,3]thiazol]-2′-amine] the same measures were 6670 nM and 369 nM.
In the case of `COc1nc(F)cc2c1Oc1ccc(-c3cccnc3)cc1[C@]21COC(N)=N1` [Example 847, (5R)-3-fluoro-1-methoxy-7-(3-pyridinyl)spiro[chromeno[2,3-c]pyridine-5,4′-[1,3]oxazol]-2′-amine, (5S)-3-fluoro-1-methoxy-7-(3-pyridinyl)spiro[chromeno[2,3-c]pyridine-5,4′-[1,3]oxazol]-2′-amine], the results for the IC50 in test [1] and in test [2] were 10 nM and 0.4 nM, respectively.
Take `CC(C)(C)COc1ccc2c(c1)[C@@]1(COC(N)=N1)c1cc(-c3cncnc3)c(F)cc1O2` [Example 511, (4R)-7′-(2,2-dimethylpropoxy)-3′-fluoro-2′-(5-pyrimidinyl)spiro[1,3-oxazole-4,9′-xanthen]-2-amine]: the IC50 in test [1] (setting [3]) is 492 nM; in test [2], 99.3 nM.
For `N#Cc1cccc(COc2ccc3c(c2)[C@@]2(COC(N)=N2)c2cc(-c4cccnc4)cnc2O3)c1` [Example 984, 3-((((5S)-2′-amino-3-(3-pyridinyl)spiro[chromeno[2,3-b]pyridine-5,4′-[1,3]oxazol]-7-yl)oxy)methyl)benzonitrile], the IC50 in test [1] (setting [4]) came out at 125 nM; in test [2], 30.8 nM.
Take `Cc1cnc(F)c(-c2ccc3c(c2)[C@@]2(COC(N)=N2)c2cc(N4CCC(F)(F)CC4)ncc2O3)c1` [Example 420, (5S)-3-(4,4-difluoro-1-piperidinyl)-7-(2-fluoro-5-methyl-3-pyridinyl)spiro[chromeno[2,3-c]pyridine-5,4′-[1,3]oxazol]-2′-amine]: the IC50 in test [1] (setting [3]) worked out at 15.1 nM; in test [2], 1.2 nM.
As for `NC1=N[C@]2(CS1)c1cc(-c3cccnc3F)ccc1Oc1cnc(-c3ccnc(F)c3)cc12` [Example 992, (5R)-7-(2-fluoro-3-pyridinyl)-3-(2-fluoro-4-pyridinyl)spiro[chromeno[2,3-c]pyridine-5,4′-[1,3]thiazol]-2′-amine], the IC50 in test [1] (setting [4]) was determined as 1830 nM; in test [2] it was 42.5 nM.
Turning to `CC1(C#Cc2cc3c(nc2F)Oc2ccc(-c4ccc(F)nc4)cc2[C@]32COC(N)=N2)COC1` [Example 905, (5R)-2-fluoro-7-(6-fluoro-3-pyridinyl)-3-((3-methyl-3-oxetanyl)ethynyl)spiro[chromeno[2,3-b]pyridine-5,4′-[1,3]oxazol]-2′-amine], the values for the IC50 in test [1] (setting [3]) and in test [2] were 3110 nM and 126 nM, respectively.
Regarding `CC#Cc1cncc(-c2ccc3c(c2)[C@@]2(COC(N)=N2)c2cc(C4=CCCOC4)nc(F)c2O3)c1` [Example 758, (5S)-3-(5,6-dihydro-2H-pyran-3-yl)-1-fluoro-7-(5-(1-propyn-1-yl)-3-pyridinyl)spiro[chromeno[2,3-c]pyridine-5,4′-[1,3]oxazol]-2′-amine], the figures for the IC50 in test [1] (setting [4]) and in test [2] were 2 nM and 0.4 nM, respectively.
The matching figures for `CC1(C#Cc2cc3c(cc2OC(F)(F)F)Oc2ccc(-c4cccnc4F)cc2[C@]32COC(N)=N2)COC1` [Example 987, (4R)-7′-(2-fluoro-3-pyridinyl)-2′-((3-methyl-3-oxetanyl)ethynyl)-3′-(trifluoromethoxy)spiro[1,3-oxazole-4,9′-xanthen]-2-amine]: no less than 10000 nM and 4630 nM.
With `COC[C@H]1SC(N)=NC12c1cc(-c3cccnc3F)ccc1Oc1c(F)cc(OC)cc12` (stereo partly drawn) [Example 1092, (4S/R,5S)-4′-fluoro-7′-(2-fluoropyridin-3-yl)-2′-methoxy-5-(methoxymethyl)-5H-spiro[thiazole-4,9′-xanthen]-2-amine], the IC50 in test [1] (average IC50, HEK cells) was found to be 498 nM; in test [2], 5.7 nM.
For `CC1(C)CC(c2cnc3c(c2)[C@]2(CSC(N)=N2)c2cc(-c4cccnc4F)ccc2O3)=CCO1` [Example 774, (5S)-3-(2,2-dimethyl-3,6-dihydro-2H-pyran-4-yl)-7-(2-fluoro-3-pyridinyl)spiro[chromeno[2,3-b]pyridine-5,4′-[1,3]thiazol]-2′-amine], the IC50 in test [1] (setting [4]) is 17 nM; in test [2], 0.6 nM.
For `CC#Cc1cncc(-c2ccc3c(c2)[C@@]2(CSC(N)=N2)c2cc(-c4ccnc(F)c4)cnc2O3)c1` [Example 781, (5S)-3-(2-fluoro-4-pyridinyl)-7-(5-(1-propyn-1-yl)-3-pyridinyl)spiro[chromeno[2,3-b]pyridine-5,4′-[1,3]thiazol]-2′-amine] the same measures were 3 nM and 0.3 nM.
As for `NC1=N[C@@]2(CS1)c1cc(-c3cccnc3F)ccc1Oc1c2cc(C2=CCCOC2)nc1F` [Example 1028, (S)-3-(5,6-dihydro-2H-pyran-3-yl)-1-fluoro-7-(2-fluoropyridin-3-yl)-5′H-spiro[chromeno[2,3-c]pyridine-5,4′-thiazol]-2′-amine], the IC50 in test [1] (setting [4]) worked out at 3 nM; in test [2], 0.2 nM.
For `NC1=N[C@@]2(CO1)c1cc(-c3cccnc3)ccc1Oc1c(F)cc(N3CCCC3=O)cc12` [Example 792, 1-((4S)-2-amino-4′-fluoro-7′-(3-pyridinyl)spiro[1,3-oxazole-4,9′-xanthen]-2′-yl)-2-pyrrolidinone] the same measures were 30 nM and 5.1 nM.
